Values joined by “and” are separate entries in the source; they are usually repeats but may differ in a detail not shown here. Equal values may be shown once.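 Five concentrations, 48 hours, 96-well plates. GI50: concentration for 50% inhibition of growth. TGI: concentration producing complete growth inhibition.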
Columns and labels:
Assay in all cases: growth of human tumour cells (NCI), 48 h
UO-31 renal = test system: UO-31 renal
SF-268 CNS = test system: SF-268 CNS
HCT-15 colon = test system: HCT-15 colon
SN12C renal = test system: SN12C renal
SK-MEL-2 melanoma = test system: SK-MEL-2 melanoma
LXFL 529 NSCLC = test system: LXFL 529 NSCLC
SK-OV-3 ovarian = test system: SK-OV-3 ovarian
SNB-78 CNS = test system: SNB-78 CNS
MCF7 breast = test system: MCF7 breast
MDA-MB-231 breast = test system: MDA-MB-231 breast

Row | Structure (SMILES) | TGI (UO-31 renal) | TGI (SF-268 CNS) | TGI (HCT-15 colon) | TGI (SN12C renal) | TGI (SK-MEL-2 melanoma) | TGI (LXFL 529 NSCLC) | TGI (SK-OV-3 ovarian) | TGI (SNB-78 CNS) | GI50 (UO-31 renal) | GI50 (SF-268 CNS) | GI50 (HCT-15 colon) | GI50 (SN12C renal) | GI50 (SK-MEL-2 melanoma) | GI50 (SK-OV-3 ovarian) | GI50 (MCF7 breast) | TGI (MCF7 breast) | GI50 (MDA-MB-231 breast) | TGI (MDA-MB-231 breast)
1 | COc1ccc(CNc2nc3c(NC(C)=O)cc(C(F)(F)F)cc3nc2-c2ccccc2)cc1OC | > 100 µM | > 100 µM | > 100 µM | > 100 µM | > 100 µM | > 100 µM | > 100 µM | > 100 µM |  |  |  |  |  |  |  |  |  | 
2 | C=C(C)[C@@H]1CC[C@]2(COC3CCCCO3)CC[C@]3(C)[C@H](CC[C@@H]4[C@@]5(C)C=C(C=O)C(=O)C(C)(C)[C@@H]5CC[C@]43C)[C@@H]12 (stereo partly drawn) | 2.74 µM | 3.05 µM | 3.97 µM | 5.57 µM | 3.26 µM |  | 3.32 µM |  | 1360 nM | 1.34 µM | 1.77 µM | 2.06 µM | 1.56 µM | 1.84 µM | 1520 nM | 3.43 µM | 1.81 µM | 3.82 µM
3 | COc1ccc(-c2cc(-c3cc(OC)c(OC)c(OC)c3)c(C#N)c(N3CCOCC3)n2)cc1O | > 100 µM | > 100 µM | > 60.3 µM | > 100 µM | > 100 µM |  | > 100 µM |  | 11100 nM | 6 µM | 1.89 µM | 4.69 µM | 13.5 µM | 14.8 µM | 3200 nM | > 100 µM | 2.41 µM | > 93.3 µM
4 | C[C@H]1C(Oc2ccc(O)cc2)OC2OC3(C)CCC4[C@H](C)CCC1C24OO3 (stereo partly drawn) | 26.2 µM | 27.2 µM | 23.8 µM | 26 µM | 23 µM |  | 47.8 µM |  | 11000 nM | 12.9 µM | 2.36 µM | 11.7 µM | 7.1 µM | 21.1 µM | 12600 nM | 32.5 µM | 15.8 µM | 30.9 µM
5 | O=C(c1ccccc1)c1nc2ccc(C(F)(F)F)cc2[n+]([O-])c1C(F)(F)F | > 100 µM | > 100 µM | > 100 µM | > 100 µM | > 100 µM |  | > 100 µM |  | 23800 nM | 39.9 µM | 35.1 µM | 54 µM | 27.5 µM | 27.4 µM | 36000 nM | > 100 µM | 45.1 µM | > 100 µM
6 | CCC1CCc2nc3sc(C(=O)Nc4ccccc4C)c(N)c3cc2C1 (stereo not drawn) | > 100 µM | > 100 µM | > 100 µM | > 100 µM | > 100 µM |  | > 100 µM |  | 998 nM | 0.706 µM | 0.339 µM | 8.37 µM | 0.46 µM | 0.855 µM | 287 nM | > 100 µM | > 100 µM | > 100 µM
7 | CN(C)c1n/c(=N/c2ncn[nH]2)ss1 | > 100 µM | > 100 µM | > 100 µM | > 100 µM | > 100 µM | > 100 µM | > 100 µM | > 100 µM |  |  |  |  |  |  |  |  |  | 
8 | c1ccc(COCC2OC3c4ccccc4COC3C2OCc2ccccc2)cc1 (stereo not drawn) | > 100 µM |  | > 100 µM | > 100 µM | > 100 µM |  | > 100 µM | > 100 µM |  |  |  |  |  |  |  |  |  | 
9 | COc1ccccc1S(=O)(=O)Nc1ccc2c(c1)CN(C)C(=O)N2 | > 100 µM | > 100 µM | > 100 µM | > 100 µM | > 100 µM |  | > 100 µM |  | 1410 nM and 1050 nM | 20 µM and 24.7 µM | 3.79 µM and 3.32 µM | 11 µM and 7.5 µM | 6.48 µM and 29.5 µM | 4.47 µM and 5.15 µM | 1870 nM and 1480 nM | > 100 µM | 4.28 µM and 7.34 µM | > 100 µM
10 | CNC1C(O)C(OC2C(N)CC(N)C(OC3OC(C(C)O)C(O)C(O)C3N)C2O)OCC1(C)O (stereo not drawn) | > 100 µM | > 100 µM | > 100 µM | > 100 µM | > 100 µM |  | > 100 µM |  |  |  |  |  |  |  |  | > 100 µM |  | > 100 µM
11 | Cc1c(NC(=O)OC[C@@H]2COCCN2)cn2ncnc(Nc3ccc4c(cnn4Cc4cccc(F)c4)c3)c12 | > 10 µM and 16.5 µM | > 10 µM and 24.5 µM | > 10 µM and 21.4 µM | > 10 µM and 20.4 µM | > 10 µM and 29.4 µM |  | > 10 µM and 16.6 µM |  | 1250 nM and 1550 nM | > 10 µM and 7.18 µM | 5.81 µM and 6.14 µM | > 10 µM and 3.32 µM | > 10 µM and 12.9 µM | 1.09 µM and 0.711 µM | > 10000 nM and 12100 nM | > 10 µM and 33.6 µM | 4.89 µM and 2.99 µM | > 10 µM and 13.4 µM
12 | CCOC(=O)c1cc2c(n1Cc1ccccc1)-c1oncc1CC2 | 40.5 µM | 79 µM | 56.2 µM | 55.8 µM | 27.3 µM |  | 93.1 µM |  | 4320 nM | 6.89 µM | 3.58 µM | 10 µM | 6.15 µM | 7.07 µM | > 100000 nM | > 100 µM | 5.66 µM | 57.1 µM
13 | O=C(O)C1(Cc2cccc(Nc3nccs3)n2)CCC(Oc2cccc(Cl)c2F)CC1 (stereo not drawn) | 79.8 µM | > 100 µM | 25.2 µM | 46.6 µM | 36.4 µM |  | 46 µM |  | 16300 nM | 25.1 µM | 3.34 µM | 11.4 µM | 17.6 µM | 12.8 µM | 329 nM | 50.5 µM | 14.7 µM | 41.6 µM
14 | COC12CC(=O)C(C(C)=O)=C(O)C1(C)c1c(OC(C)=O)c(C)c(O)c(C(C)=O)c1O2 (stereo not drawn) | 33 µM | > 100 µM | > 100 µM | 64.7 µM | 53.6 µM | > 100 µM |  | > 100 µM |  |  |  |  |  |  |  |  |  | 
15 | CC(=O)OC1CC2C(C)(C)C(=O)C=CC2(C)C2CCC3(C)C(c4ccoc4)OC(=O)C4OC43C12C (stereo not drawn) | 15.2 µM | > 100 µM | 35.4 µM | 17.2 µM | 39.2 µM |  | 48.7 µM |  |  |  |  |  |  |  |  | 29.5 µM |  | 14.1 µM
16 | COc1ccc(Cn2cc3c(c2-c2cc(OC)c(OC)c(OC)c2)CCc2cnoc2-3)cc1[N+](=O)[O-] | > 100 µM | > 100 µM | > 100 µM | > 100 µM | 10.3 µM |  | > 30.2 µM |  | 1260 nM | 3.79 µM | 0.573 µM | 4.11 µM | 0.366 µM | 1.08 µM | 454 nM | > 100 µM | 2.13 µM | > 41.2 µM
17 | CSc1ccc(/C=C/c2ccnc3ccccc23)cc1 | 26.5 µM | 66 µM | 25.7 µM | 28.8 µM | 30.1 µM |  | 33.3 µM |  |  |  |  |  |  |  |  | 28.6 µM |  | 30.8 µM

Source: PubChem BioAssay (NCI)
